Inhibition data for five molecules are collected here from US20100093542A1, “HERBICIDE COMBINATION COMPRISING DIMETHOXYTRIAZINYL SUBSTITUTED DIFLUOROMETHANESULFONYLANILIDES” (BAYER CORPSCIENCE AG, priority 2008, published 2010).

Read-outs that look alike come from different tables or passages of the source.

Common to all, as to assay: Post-emergence action against weeds, greenhouse pot test, visual scoring
Holding throughout (format): in vivo

Assay [1] has as its system Lolium multiflorum (LOLMU). As to conditions: read-out: % activity found. The procedure: (§1) Seeds or rhizome pieces of mono- and dicotyledonous harmful and useful plants were placed in peat pots (diameter 4 cm) filled with sandy loam and then covered with soil. The pots were kept in a greenhouse under optimum conditions. In addition, harmful plants encountered in paddy rice cultivation were cultivated in pots with a water level 2 cm above the soil surface.
(§2) About three weeks after the start of the cultivation, the test plants were treated at the 2- to 3-leaf stage. The herbicides, formulated as powder or liquid concentrates, were, either alone or in the combinations according to the invention, sprayed in various dosages on to the green parts of the plants using an application rate of 600 l of water/ha (converted). For further cultivation of the plants, the pots were then again kept under optimum conditions in a greenhouse.
(§3) The visual scoring of the herbicidal effects was carried out in intervals up to 21 days after the treatment. Scoring was carried out in percent in comparison to the untreated control plants. 0%=no herbicidal activity, 100%=complete herbicidal activity=complete kill.
(§4) The percentages from the treatments with the herbicides alone (=individual application) and with the combinations according to the invention (=mixtures) were employed to calculate interactions using the method of Colby. When the observed efficacies of the mixtures exceed the formal sum of the values of the tests with individual applications, they also exceed the expected value according to Colby, which is calculated using the formula below (cf. S. R. Colby; in Weeds 15 (1967) pp. 20 to 22):
(§5) Here: • A, B=activity of components A and B in percent at a dosage of a and b g of ai/ha (=gramm of active substance per hectare), respectively. • E=expected value in % at a dosage of a+b g of ai/ha.

The subject of the next assay is Zea mays (ZEAMX). As to conditions: read-out: % activity found; for inhibition at 30 g/ha / inhibition at 90 g/ha: ZEAMX. The procedure:
as §1, §2, §3, §4, §5

A further assay relates to Avena fatua (AVEFA). As to conditions: read-out: % activity found; for inhibition at 30 g/ha / inhibition at 90 g/ha: AVEFA. The procedure: as §1, §2, §3, §4, §5
The test system of assay [2] is Alopecurus myosuroides (ALOMY). As to conditions: 504 h, read-out: % activity found. How it is done: as §1, §2, §3, §4, §5
Another assay relates to Setaria viridis (SETVI). To be noted: 504 h, read-out: % activity found. How it is done: as §1, §2, §3, §4, §5
For assay [3], the system named is Triticum aestivum (TRZAS). To be noted: read-out: % activity found. The procedure: as §1, §2, §3, §4, §5
A further assay deals with Viola tricolor (VIOTR). To be noted: read-out: % activity found. The procedure: as §1, §2, §3, §4, §5
Assay [4] concerns Fallopia (ex Polygonum) convolvulus (POLCO). As to conditions: read-out: % activity found. How it is done: as §1, §2, §3, §4, §5
Assay [5] relates to Pharbitis purpurea (PHBPU). As to conditions: Ipomoea purpurea, read-out: % activity found; for inhibition at 4 g/ha / inhibition at 12 g/ha: PHBPU; for inhibition at 4 g/ha: A-1 4 g of ai/ha; for inhibition at 12 g/ha: A-1 12 g of ai/ha. The procedure: as §1, §2, §3, §4, §5
For assay [6], the system named is Amaranthus retroflexus (AMARE). As to conditions: read-out: % activity found; for inhibition at 12 g/ha: A-1 12 g of ai/ha. How it is done:
as §1, §2, §3, §4, §5

Assay [7] deals with Abuthilon theophrasti (ABUTH). To be noted: Abutilon theophrasti, 240 h, read-out: % activity found. How it is done: as §1, §2, §3, §4, §5
The subject of another assay is Oryza sativa (ORYSA). As to conditions: read-out: % activity found; for inhibition at 90 g/ha: ORYSA, B3-3 90 g of ai/ha. How it is done: as §1, §2, §3, §4, §5
For assay [8], the system named is Cyperus esculentus (CYPES). As to conditions: 504 h, read-out: % activity found. The procedure: as §1, §2, §3, §4, §5
For assay [9], the system named is Matricaria inodora (MATIN). To be noted: Tripleurospermum inodorum, read-out: % activity found. The procedure:
as §1, §2, §3, §4, §5

[10] abbreviates: 240 h, 10 DAT, B3-1 30 g of ai/ha.
The mark [11] stands for this setting: 240 h, 10 DAT, B3-1 90 g of ai/ha.
Where [12] appears, read: 504 h, 21 DAT, B3-3 30 g of ai/ha.
The mark [13] stands for this setting: 504 h, 21 DAT, B3-3 90 g of ai/ha.

Consider `CS(=O)(=O)c1ccc(C(=O)C2C(=O)CCCC2=O)c([N+](=O)[O-])c1` [B3-1, 2-[4-(methylsulfonyl)-2-nitrobenzoyl]-1,3-cyclohexanedione], for which the inhibition at 30 g/ha in [1] (240 h, LOLMU, 10 DAT, B3-1 30 g of ai/ha) is 30%; in [1] (504 h, LOLMU, 21 DAT, B3-1 30 g of ai/ha), 0%; in the assay with Zea mays (ZEAMX) (setting [10]) it was 0%; in the assay with Avena fatua (AVEFA) (setting [10]), 0%; in the assay on Avena fatua (AVEFA) (504 h, 21 DAT, B3-1 30 g of ai/ha) it was 0%; in [2] (ALOMY, 21 DAT, B3-1 30 g of ai/ha), 0%. Besides, the inhibition at 30 g/ha in the assay on Setaria viridis (SETVI) (SETVI, 21 DAT, B3-1 30 g of ai/ha) is 0%. Moreover, the inhibition at 90 g/ha in the assay on Zea mays (ZEAMX) (setting [11]) is 20%; with Avena fatua (AVEFA) (setting [11]), 0%; in the assay with Avena fatua (AVEFA) (504 h, 21 DAT, B3-1 90 g of ai/ha) it was 0%; in assay [2] (ALOMY, 21 DAT, B3-1 90 g of ai/ha), 30%; with Setaria viridis (SETVI) (SETVI, 21 DAT, B3-1 90 g of ai/ha), 20%; in assay [3] (504 h, TRZAS, 21 DAT, B3-1 90 g of ai/ha), 30%.
`CCSC(C)CC1CC(=O)C(/C(CC)=N/OC/C=C/Cl)=C(O)C1` (racemic) [B2-3, (E,E)-(±)-2-[1-[[(3-chloro-2-propenyl)oxy]imino]propyl]-5-[2-(ethylthio)propyl]-3-hydroxy-2-cyclohexen-1-one]: the inhibition at 60 g/ha worked out at 80% with Zea mays (ZEAMX) (240 h); 0% in the assay with Viola tricolor (VIOTR) (240 h); 0% in the assay with Viola tricolor (VIOTR) (504 h); 0% in [4] (240 h); 0% in assay [4] (504 h); 0% in assay [5] (240 h). In addition, the inhibition at 60 g/ha in assay [5] (504 h), in assay [6] (240 h), in [6] (504 h), in [7], in assay [8] and in assay [9] (240 h) was 0% in each case. Further, the inhibition at 60 g/ha in assay [9] (504 h) was found to be 0%. Also, the inhibition at 20 g/ha turned out to be 50% with Avena fatua (AVEFA) (504 h); 0% with Viola tricolor (VIOTR) (240 h); 0% with Viola tricolor (VIOTR) (504 h); 0% in assay [4] (240 h); 0% in assay [4] (504 h); 0% in assay [5] (240 h). Further, the inhibition at 20 g/ha in assay [5] (504 h) stood at 0%; in [6] (240 h), 0%; in assay [6] (504 h) it was 0%; in assay [7], 0%; in the assay on Oryza sativa (ORYSA) (240 h) it was 90%; with Oryza sativa (ORYSA) (504 h) it was 95%. The inhibition at 20 g/ha in assay [3] (240 h) was 40%; in assay [8], 0%; in [9] (504 h) it was 0%.
With `COc1nc(OC)nc(C(=O)c2cccc(F)c2N(C)S(=O)(=O)C(F)F)n1` [A-1], the inhibition at 12 g/ha in the assay on Viola tricolor (VIOTR) (240 h, VIOTR, 10 DAT, A-1 12 g of ai/ha) turned out to be 20%; in assay [4] (240 h, POLCO, 10 DAT, A-1 12 g of ai/ha), 70%; in assay [5] (240 h, 10 DAT) it was 60%; in [5] (504 h, 21 DAT) it was 65%; in assay [6] (240 h, AMARE, 10 DAT), 70%; in assay [6] (504 h, AMARE, 21 DAT), 75%. The inhibition at 12 g/ha in assay [7] (ABUTH, 10 DAT, A-1 12 g of ai/ha) was 70%. The inhibition at 4 g/ha is 70% in assay [4] (240 h, POLCO, 10 DAT, A-1 4 g of ai/ha); 60% in assay [5] (240 h, 10 DAT); 60% in assay [5] (504 h, 21 DAT); 70% in [6] (504 h, AMARE, 21 DAT, A-1 4 g of ai/ha); 70% in assay [7] (ABUTH, 10 DAT, A-1 4 g of ai/ha); 60% in assay [9] (240 h, MATIN, 10 DAT, A-1 4 g of ai/ha).
In the case of `CS(=O)(=O)c1ccc(C(=O)C2C(=O)CCCC2=O)c(Cl)c1COCC(F)(F)F` [B3-3, 2-[2-chloro-4-(methylsulfonyl)-3-[(2,2,2-trifluoroethoxy)methyl]benzoyl]-1,3-cyclohexanedione], the inhibition at 30 g/ha was 20% in assay [1] (504 h, LOLMU, 21 DAT, B3-3 30 g of ai/ha); 0% in the assay with Zea mays (ZEAMX) (240 h, 10 DAT, B3-3 30 g of ai/ha); 0% with Zea mays (ZEAMX) (setting [12]); 0% in the assay on Avena fatua (AVEFA) (setting [12]); 40% in assay [2] (ALOMY, 21 DAT, B3-3 30 g of ai/ha); 50% in the assay with Setaria viridis (SETVI) (SETVI, 21 DAT, B3-3 30 g of ai/ha). Also, the inhibition at 90 g/ha in assay [1] (504 h, LOLMU, 21 DAT, B3-3 90 g of ai/ha) stood at 50%; with Zea mays (ZEAMX) (240 h, 10 DAT, B3-3 90 g of ai/ha) it was 0%; with Zea mays (ZEAMX) (setting [13]), 0%; with Avena fatua (AVEFA) (setting [13]), 0%; with Oryza sativa (ORYSA) (240 h, 10 DAT), 40%; in the assay with Oryza sativa (ORYSA) (504 h, 21 DAT) it was 30%.
As for `CS(=O)(=O)c1ccc(C(=O)C2C(=O)CCCC2=O)c(Cl)c1` [B3-2, 2-[2-chloro-4-(methylsulfonyl)benzoyl]-1,3-cyclohexanedione], the inhibition at 70 g/ha (in [1] (504 h); in the assay on Zea mays (ZEAMX) (240 h); with Zea mays (ZEAMX) (504 h); in the assay on Avena fatua (AVEFA) (240 h); in the assay with Avena fatua (AVEFA) (504 h); in assay [2]) was 0% throughout. Besides, the inhibition at 70 g/ha with Setaria viridis (SETVI) came to 0%. Also, the inhibition at 210 g/ha in the assay on Zea mays (ZEAMX) (240 h) amounted to 0%; in the assay on Zea mays (ZEAMX) (504 h), 0%; in the assay on Avena fatua (AVEFA) (504 h), 0%; in [2], 20%; in the assay on Setaria viridis (SETVI), 20%.
